“Also recorded” adds a separate entry of the source.
Assays:
E. coli NCM372 = assay: E. coli growth with 12a supplementation; format: cell-based, Escherichia coli
Method: (§1) FIG. 7: Bioactivity of farnesoic diacid. FIG. 7(a): E. coli NCM372 was grown to an optical density (OD600) of around 0.2, where either 12a in DMSO was added to final concentration of 10 μM (+) or DMSO was added (−). Three biological replicates are shown, and statistical significance using an unpaired t test is shown. FIG. 7(b): Immortalized baby mouse kidney (iBMK) cells were grown, either non-activated (D3) or Ras-activated (Ras). 12a in DMSO was added to final concentration of 10 μM (+) or DMSO was added (−). Three biological replicates are shown, and statistical significance using an unpaired t test is shown.
We supplemented cultures with 12a to a final concentration of 10 μM and monitored growth in both Escherichia coli (FIG. 6a) and mammalian cell lines (FIG. 6b). […] These findings provide evidence that farnesoic diacid and potentially our other newly discovered bifunctional terpenoids may have distinct bioactivities across diverse biological contexts, with applications in more efficient cultivation of microbes and selective activity against certain mammalian cells. As the longer bifunctional terpenoids (C25-C30) resemble oxylipin and polyunsaturated fatty acids, which are implicated in immunity and obesity, we reason that bioactivity may be related to lipid metabolism in mammalian systems that will be relevant in pharmaceutical contexts. Furthermore, the shorter bifunctional terpenoids (C15-C20) and their preceding biosynthetic intermediates resemble inhibitors of insect development, such as juvenile hormones, these molecules may serve as scaffolds for insecticide drug activity to target insect development. Further research on the novel molecules will illuminate more bioactivities on humans, human cells, research animals, plants, insects, and microorganisms.

[1] = test system: Immortalized baby mouse kidney (iBMK) cells, non-activated (D3); assay: iBMK cell growth with 12a, non-activated (D3); format: cell-based
Method: as §1
(§2) We supplemented cultures with 12a to a final concentration of 10 μM and monitored growth in both Escherichia coli (FIG. 6a) and mammalian cell lines (FIG. 6b). […] These findings provide evidence that farnesoic diacid and potentially our other newly discovered bifunctional terpenoids may have distinct bioactivities across diverse biological contexts, with applications in more efficient cultivation of microbes and selective activity against certain mammalian cells. As the longer bifunctional terpenoids (C25-C30) resemble oxylipin and polyunsaturated fatty acids, which are implicated in immunity and obesity, we reason that bioactivity may be related to lipid metabolism in mammalian systems that will be relevant in pharmaceutical contexts. […]

[2] = test system: Immortalized baby mouse kidney (iBMK) cells, Ras-activated (Ras); assay: iBMK cell growth with 12a, Ras-activated (Ras); format: cell-based
Method: as §1, §2

[3] = 12a 10 μM vs DMSO, 3 biological replicates

Compound: C/C(=C\CC/C(C)=C/C(=O)O)CC/C=C(\C)C(=O)O [12a, farnesoic diacid]
- microbial cells grew faster with treatment (E. coli NCM372; 12a 10 μM in DMSO vs DMSO, added at OD600 around 0.2, 3 biological replicates): ~10%
- final optical density (E. coli NCM372; 12a 10 μM vs DMSO): higher final optical density
- microbial growth rate / cell growth (E. coli NCM372; 12a 10 μM vs DMSO): increases microbial cell growth; also recorded: increased microbial growth rate
- total biomass content (E. coli NCM372; farnesoic diacid treatment, FIG. 7): increased
- proliferation / cell growth ([1]; 12a 10 μM): decreases mammalian (cancer-like) cell growth; also recorded: modest decrease in proliferation
- cancer-like cell lines grew slower with treatment [1, 3]: ~10%
- proliferation / cell growth ([2]; 12a 10 μM): decreases mammalian (cancer-like) cell growth; also recorded: modest decrease in proliferation
- cancer-like cell lines grew slower with treatment [2, 3]: ~10%

From US20250354182A1, “BIOSYNTHESIS OF BIFUNCTIONAL TERPENOIDS” (The Regents of the University of California, priority 2024, published 2025)
